Measurements reported in patent US20100221763A1, “Specific Acceptors for Transferases to Saccharides and Method for Obtaining and Using Same” (Health Research, Inc, priority 2005, published 2010).
Several values for one entry are separate records, joined by “and”; a condition that tells them apart may be missing. Equal entries are not always repeated.

Assays:
[1] = tested on: LNCaP α2,3(O)ST; experiment: Sialyltransferase assay with LNCaP cell extract; format: biochemical, human; conditions: Table I; acceptor 7.5 mM; 100% = 30930 CPM (3-O-MeGalβ1,4GlcNAcβ1,6(Galβ1,3)GalNAcα-O-Bn)
Procedure, shortened: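 LNCaP Triton X-100 extract (5 mg protein/ml; 0.1M Tris-maleate pH6.3) incubated with acceptor (typically 7.5 mM) and CMP-[9-3H]NeuAc (typically 0.2 μCi) in 0.1M Na cacodylate pH6.0, 2 h at 37 °C, in duplicate. Radioactive product separated on Dowex-1-formate, Sep-Pak C18 or Biogel P2 and counted by scintillation; blank without acceptor subtracted.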

[2] = target: T1, Rat recombinant α2,3(N)ST (Rattus norvegicus, UniProt Q02734); experiment: Sialyltransferase assay with cloned α2,3(N)ST; format: biochemical; conditions: Table I; acceptor 7.5 mM; 100% = 29520 CPM (Galβ1,4GlcNAcβ-O—Al)
T1 construct: purchased Calbiochem
T1 sequence (Q02734 29-374 limits assumed): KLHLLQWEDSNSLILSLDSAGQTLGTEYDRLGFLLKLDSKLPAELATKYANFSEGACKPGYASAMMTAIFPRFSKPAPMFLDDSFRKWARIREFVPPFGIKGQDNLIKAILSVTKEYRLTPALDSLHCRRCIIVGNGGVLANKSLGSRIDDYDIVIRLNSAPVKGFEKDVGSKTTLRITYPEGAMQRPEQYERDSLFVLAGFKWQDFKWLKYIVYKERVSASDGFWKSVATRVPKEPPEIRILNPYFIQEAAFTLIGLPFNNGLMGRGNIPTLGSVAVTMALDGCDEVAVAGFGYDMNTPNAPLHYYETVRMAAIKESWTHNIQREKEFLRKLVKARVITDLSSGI
Procedure, shortened: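 Each rat recombinant sialyltransferase incubated 2 h at 37° C in 0.1M NaCacodylate pH6.0 with acceptor (typically 7.5 mM) and CMP-[9-³H]NeuAc (typically 0.2 μci; 20 μci/nmol), in duplicate, acceptor-free blank subtracted. Radiolabelled product separated on Dowex-1-Formate or Sep-Pak C18 and counted by liquid scintillation.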

SMILES	Sialyltransferase activity (%) Cloned α2,3(N)ST [2]	Sialyltransferase activity (%) LNCaP α2,3(O)ST [1] [%]
C=CCO[C@H]1O[C@H](CO)[C@H](O)[C@H](O[C@@H]2O[C@H](CO)[C@H](O)[C@H](O)[C@H]2O)[C@H]1NC(C)=O [Galβ1,3GalNAcα-O—Al]	24.1%	34.4
CO[C@H]1[C@H](O[C@H]2[C@H](O)[C@@H](NC(C)=O)C(O)O[C@@H]2CO)O[C@H](CO)[C@H](O)[C@@H]1O (some centres unmarked) [2-O-MeGalβ1,4GlcNAc]	60.0%	–
CO[C@H]1[C@H](O[C@H]2[C@H](O)[C@@H](CO)OC(O)[C@@H]2NC(C)=O)O[C@H](CO)[C@H](O)[C@@H]1O (some centres unmarked) [2-O-MeGalβ1,3GlcNAc]	115.3%	–

The next lines start with results.

Sialyltransferase activity (%) Cloned α2,3(N)ST [2]	SMILES	Sialyltransferase activity (%) LNCaP α2,3(O)ST [1] [%]
3.1%	CO[C@H]1O[C@H](CO)[C@H](O)[C@H](O[C@@H]2O[C@H](CO)[C@H](O)[C@H](O[C@@H]3O[C@H](C)[C@H](O)[C@H](O)[C@H]3O)[C@H]2NC(C)=O)[C@H]1O [D-Fucβ1,3GalNAcβ1,3Galα-O-Me]	9.6
106.8% and 106.8^20%	CO[C@H]1O[C@H](CO)[C@H](O)[C@H](O[C@@H]2O[C@H](CO)[C@H](O)[C@H](O[C@@H]3O[C@H](CO)[C@H](O)[C@H](O)[C@H]3O)[C@H]2NC(C)=O)[C@H]1O [Galβ1,3GalNAcβ1,3Galα-O-Me]	34.3
